Measured values from PubChem BioAssay (NCI).
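Cells were grown in 96-well plates and exposed to each compound for 48 hours at five concentrations; endpoints were interpolated linearly between bracketing concentrations, or set to the highest concentration if not reached. At the GI50, growth is halved. TGI denotes the concentration required for complete inhibition of growth.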

What was measured:
Test in all cases: NCI-60 cell line screen, 48 h
[1] = system: OVCAR-3 ovarian
[2] = system: OVCAR-4 ovarian
[3] = system: HT29 colon
[4] = system: M14 melanoma
[5] = system: MALME-3M melanoma
[6] = system: DU-145 prostate
[7] = system: SF-539 CNS
[8] = system: SK-MEL-5 melanoma
[9] = system: HL-60(TB) leukemia
[10] = system: UO-31 renal

C#C/C=C/CC1OC(C(Br)CC)CC(Br)C2CC1O2 (stereo not given)
TGI [1]: > 100 µM
TGI [2]: > 100 µM
TGI [3]: > 100 µM
TGI [4]: > 100 µM
TGI [5]: 25.7 µM
TGI [6]: > 100 µM
TGI [7]: > 100 µM
TGI [8]: > 100 µM
TGI [9]: > 100 µM

NCCN1C(=O)c2ccccc2C1(O)c1ccc(Cl)cc1 (stereo not given)
TGI [1]: > 100 µM
TGI [2]: > 100 µM
TGI [3]: 39.8 µM
TGI [4]: 36 µM
TGI [5]: 27.2 µM
TGI [6]: > 100 µM
TGI [7]: 43.2 µM
TGI [8]: 31.3 µM
TGI [9]: 70.8 µM

C#CC(=O)OCC#CCOC(=O)C#C
TGI [1]: 34.7 µM
TGI [3]: 42.7 µM
TGI [4]: 49.5 µM
TGI [5]: 38 µM
TGI [6]: 90.3 µM
TGI [7]: 28.8 µM
TGI [10]: 23.1 µM
TGI [8]: > 100 µM

O=c1cc(O)c2c(O)cc(O)cc2o1
TGI [1]: > 100 µM
TGI [2]: > 100 µM
TGI [3]: > 100 µM
TGI [4]: > 100 µM
TGI [5]: > 100 µM
TGI [6]: > 100 µM
TGI [7]: > 100 µM
TGI [8]: > 100 µM
TGI [9]: > 100 µM

CCOP(=O)(CC(=O)C1=C(O)C(CCCCNC(=O)OC(C)(C)C)N(Cc2ccccc2)C1=O)OCC (stereo not given)
TGI [1]: > 100 µM
TGI [2]: > 100 µM
TGI [3]: > 100 µM
TGI [4]: > 100 µM
TGI [5]: > 100 µM
TGI [7]: > 100 µM
TGI [10]: > 100 µM
TGI [8]: > 100 µM
TGI [9]: > 100 µM

O=C(Nc1cccc(-n2cc(-c3ccncc3)c(-c3ccc(O)c(Cl)c3)n2)c1)c1ccc(Cl)c(Cl)c1
GI50 [2]: 9.9 µM
TGI [2]: > 100 µM
GI50 [3]: 26 µM
TGI [3]: > 100 µM
GI50 [4]: 5.26 µM
TGI [4]: 54.6 µM
GI50 [5]: 3.58 µM
TGI [5]: 21 µM
GI50 [6]: 20.9 µM
TGI [6]: > 100 µM
GI50 [7]: 3.47 µM
TGI [7]: > 100 µM
GI50 [10]: 4.5 µM
TGI [10]: > 100 µM
GI50 [8]: 3.9 µM
TGI [8]: 18.7 µM

CC12CC(Sc3ccccc3N1)c1ccccc1O2 (stereo not given)
TGI [1]: 30.3 µM
TGI [2]: 31.2 µM
TGI [3]: 35 µM
TGI [4]: 37.6 µM
TGI [5]: 30.1 µM
TGI [7]: 32.5 µM
TGI [10]: 27.4 µM
TGI [8]: 28 µM
TGI [9]: 28.8 µM

CC(=O)c1cccc(NC(=O)c2ccc(NC3=C(Cl)C(=O)N(Cc4ccccc4)C3=O)cc2)c1
GI50 [1]: 9.57 µM
TGI [1]: 22.7 µM
GI50 [2]: 24.9 µM
TGI [2]: 92.2 µM
GI50 [3]: 27.3 µM
TGI [3]: > 100 µM
GI50 [4]: 17.1 µM
TGI [4]: 33.3 µM
GI50 [6]: 13.4 µM
TGI [6]: 34.2 µM
GI50 [7]: 11.4 µM
TGI [7]: 28.7 µM
GI50 [10]: 1.52 µM
TGI [10]: 3.12 µM
GI50 [8]: 12.5 µM
TGI [8]: 27.7 µM
GI50 [9]: 2.83 µM
TGI [9]: 17.2 µM

Cc1ccc(C(=O)N=Nc2c(O)[nH]c3ccc(Cl)cc23)cc1
GI50 [1]: 21.3 µM
TGI [1]: > 50 µM
GI50 [2]: 6.82 µM
TGI [2]: 18 µM
GI50 [3]: 19.8 µM
TGI [3]: > 50 µM
GI50 [4]: 22.7 µM
TGI [4]: > 50 µM
GI50 [6]: 46.9 µM
TGI [6]: > 50 µM
GI50 [7]: > 50 µM
TGI [7]: > 50 µM
GI50 [10]: > 50 µM
TGI [10]: > 50 µM
GI50 [8]: 23.7 µM
TGI [8]: > 50 µM
GI50 [9]: 38.7 µM
TGI [9]: > 50 µM
